Data as given in ChEMBL document CHEMBL1140446, “Designed multiple ligands. An emerging drug discovery paradigm” (J Med Chem, 2005).

What was measured:
[1] = molecular target: T1, Polyunsaturated fatty acid 5-lipoxygenase (Homo sapiens, UniProt P09917)
T1 sequence (P09917 whole entry): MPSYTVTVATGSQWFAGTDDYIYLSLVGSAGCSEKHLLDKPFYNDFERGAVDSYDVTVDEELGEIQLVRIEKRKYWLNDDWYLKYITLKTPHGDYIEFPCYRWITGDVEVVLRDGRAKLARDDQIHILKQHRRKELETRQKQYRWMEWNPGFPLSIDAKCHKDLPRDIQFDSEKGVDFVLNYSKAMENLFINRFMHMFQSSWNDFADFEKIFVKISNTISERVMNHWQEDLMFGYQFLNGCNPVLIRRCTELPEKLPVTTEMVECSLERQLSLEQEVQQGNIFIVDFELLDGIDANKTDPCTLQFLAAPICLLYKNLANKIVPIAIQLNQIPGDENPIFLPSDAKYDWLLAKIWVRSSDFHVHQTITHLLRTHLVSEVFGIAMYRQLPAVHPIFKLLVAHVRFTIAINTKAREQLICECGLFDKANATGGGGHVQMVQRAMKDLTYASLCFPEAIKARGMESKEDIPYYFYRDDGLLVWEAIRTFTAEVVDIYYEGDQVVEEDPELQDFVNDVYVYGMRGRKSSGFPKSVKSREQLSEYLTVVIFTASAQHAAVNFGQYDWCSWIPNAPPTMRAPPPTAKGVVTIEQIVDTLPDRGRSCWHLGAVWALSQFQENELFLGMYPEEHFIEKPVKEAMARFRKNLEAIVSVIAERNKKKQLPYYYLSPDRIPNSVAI
Description: Inhibitory concentration against arachidonate 5-lipoxygenase

[2] = molecular target: Prostaglandin G/H synthase 1 (Homo sapiens, UniProt P23219)
Chain of Prostaglandin G/H synthase 1 (P23219 whole entry): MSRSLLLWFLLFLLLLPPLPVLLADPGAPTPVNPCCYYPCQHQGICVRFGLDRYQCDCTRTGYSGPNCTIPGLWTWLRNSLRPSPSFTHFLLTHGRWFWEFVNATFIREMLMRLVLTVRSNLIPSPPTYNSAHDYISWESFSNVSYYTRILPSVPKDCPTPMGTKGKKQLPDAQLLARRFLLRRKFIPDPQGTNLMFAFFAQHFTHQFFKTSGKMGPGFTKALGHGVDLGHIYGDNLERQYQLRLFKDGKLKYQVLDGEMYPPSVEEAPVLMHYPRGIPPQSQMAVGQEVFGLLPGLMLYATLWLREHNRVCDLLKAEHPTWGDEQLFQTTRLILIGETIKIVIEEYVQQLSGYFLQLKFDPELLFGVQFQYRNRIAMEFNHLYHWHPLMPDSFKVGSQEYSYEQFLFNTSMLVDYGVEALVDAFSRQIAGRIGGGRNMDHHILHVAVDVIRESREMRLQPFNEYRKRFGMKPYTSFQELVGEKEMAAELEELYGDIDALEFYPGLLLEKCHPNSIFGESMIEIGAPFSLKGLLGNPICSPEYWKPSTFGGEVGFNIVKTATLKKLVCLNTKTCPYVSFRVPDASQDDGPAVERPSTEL
Description: Inhibitory concentration against prostaglandin G/H synthase 1

Thromboxane-A synthase = Thromboxane-A synthase (Homo sapiens, UniProt P24557)
Chain of Thromboxane-A synthase (P24557 whole entry): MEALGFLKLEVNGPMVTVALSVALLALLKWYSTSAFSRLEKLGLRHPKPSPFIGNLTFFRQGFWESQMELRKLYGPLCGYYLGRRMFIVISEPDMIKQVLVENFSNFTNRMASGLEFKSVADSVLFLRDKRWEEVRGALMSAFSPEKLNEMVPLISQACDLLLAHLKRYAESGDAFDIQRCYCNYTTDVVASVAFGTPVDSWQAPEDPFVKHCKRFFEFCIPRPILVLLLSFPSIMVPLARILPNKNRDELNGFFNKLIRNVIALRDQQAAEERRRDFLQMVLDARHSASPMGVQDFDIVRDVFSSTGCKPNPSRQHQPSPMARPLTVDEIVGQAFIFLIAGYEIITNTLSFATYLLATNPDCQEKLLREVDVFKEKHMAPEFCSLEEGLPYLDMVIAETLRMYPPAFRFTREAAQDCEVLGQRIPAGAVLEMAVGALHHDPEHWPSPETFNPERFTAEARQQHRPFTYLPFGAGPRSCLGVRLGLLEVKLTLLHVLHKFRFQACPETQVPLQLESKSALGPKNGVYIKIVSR
Description: Inhibitory concentration against thromboxane A2 synthase

[3] = molecular target: T2, Type-1 angiotensin II receptor (Homo sapiens, UniProt P30556)
T2 sequence (P30556 whole entry): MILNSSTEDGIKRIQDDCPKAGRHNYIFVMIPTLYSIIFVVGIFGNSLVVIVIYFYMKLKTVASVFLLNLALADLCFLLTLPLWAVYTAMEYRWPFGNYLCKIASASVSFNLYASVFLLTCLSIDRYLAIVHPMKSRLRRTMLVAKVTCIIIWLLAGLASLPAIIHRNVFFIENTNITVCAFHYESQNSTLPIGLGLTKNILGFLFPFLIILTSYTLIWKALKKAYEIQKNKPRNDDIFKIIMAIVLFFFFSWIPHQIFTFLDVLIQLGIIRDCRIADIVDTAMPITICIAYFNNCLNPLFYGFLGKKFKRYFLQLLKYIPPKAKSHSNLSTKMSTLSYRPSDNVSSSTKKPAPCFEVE
Description: (§1) Inhibitory concentration against angiotensin II receptor, type 1

[4] = molecular target: T3, Type-2 angiotensin II receptor (Homo sapiens, UniProt P50052)
T3 sequence (P50052 whole entry): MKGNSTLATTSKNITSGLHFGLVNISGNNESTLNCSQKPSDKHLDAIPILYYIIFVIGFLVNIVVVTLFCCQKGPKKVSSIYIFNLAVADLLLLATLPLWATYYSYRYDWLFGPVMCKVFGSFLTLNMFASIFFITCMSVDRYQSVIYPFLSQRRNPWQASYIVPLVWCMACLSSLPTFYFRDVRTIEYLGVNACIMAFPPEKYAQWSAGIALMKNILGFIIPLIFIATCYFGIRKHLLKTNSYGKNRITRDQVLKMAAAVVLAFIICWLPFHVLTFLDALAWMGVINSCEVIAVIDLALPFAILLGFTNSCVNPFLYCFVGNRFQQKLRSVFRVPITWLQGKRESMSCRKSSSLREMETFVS
Description: Inhibitory concentration against angiotensin II receptor, type 2

[5] = molecular target: T4, Peroxisome proliferator-activated receptor gamma (Homo sapiens, UniProt P37231)
T4 sequence (P37231 whole entry): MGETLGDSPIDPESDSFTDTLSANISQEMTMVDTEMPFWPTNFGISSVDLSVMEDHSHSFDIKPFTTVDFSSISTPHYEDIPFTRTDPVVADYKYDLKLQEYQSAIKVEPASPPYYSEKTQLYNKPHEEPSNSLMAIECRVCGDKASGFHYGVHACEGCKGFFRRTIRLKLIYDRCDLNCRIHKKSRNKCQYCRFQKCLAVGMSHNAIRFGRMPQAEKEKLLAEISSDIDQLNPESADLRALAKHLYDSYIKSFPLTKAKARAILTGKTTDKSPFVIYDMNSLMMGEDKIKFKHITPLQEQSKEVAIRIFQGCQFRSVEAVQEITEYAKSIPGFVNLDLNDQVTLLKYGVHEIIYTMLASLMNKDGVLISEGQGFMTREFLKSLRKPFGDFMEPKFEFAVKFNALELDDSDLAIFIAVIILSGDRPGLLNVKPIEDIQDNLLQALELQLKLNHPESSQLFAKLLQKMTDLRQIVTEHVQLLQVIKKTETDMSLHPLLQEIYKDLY
Description: Binding affinity towards peroxisome proliferator activated receptor gamma

[6] = molecular target: T5, Peroxisome proliferator-activated receptor alpha (Homo sapiens, UniProt Q07869)
T5 sequence (Q07869 whole entry): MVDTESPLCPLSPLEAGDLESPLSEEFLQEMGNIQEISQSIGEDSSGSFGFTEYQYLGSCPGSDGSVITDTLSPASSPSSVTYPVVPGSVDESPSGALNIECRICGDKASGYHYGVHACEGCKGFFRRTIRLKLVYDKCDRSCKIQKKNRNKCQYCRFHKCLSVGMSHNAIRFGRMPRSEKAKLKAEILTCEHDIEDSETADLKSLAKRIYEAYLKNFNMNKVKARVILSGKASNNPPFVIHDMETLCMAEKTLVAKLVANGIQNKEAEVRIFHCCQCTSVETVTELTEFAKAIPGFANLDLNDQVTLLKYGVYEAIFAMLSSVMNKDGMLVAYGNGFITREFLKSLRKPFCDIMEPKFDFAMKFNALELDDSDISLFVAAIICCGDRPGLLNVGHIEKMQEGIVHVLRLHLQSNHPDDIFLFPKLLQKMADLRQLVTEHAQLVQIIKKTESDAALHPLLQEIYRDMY
Description: Binding affinity towards peroxisome proliferator activated receptor alpha

Thromboxane A2 receptor = molecular target: T6, Thromboxane A2 receptor (Homo sapiens, UniProt P21731)
T6 sequence (P21731 whole entry): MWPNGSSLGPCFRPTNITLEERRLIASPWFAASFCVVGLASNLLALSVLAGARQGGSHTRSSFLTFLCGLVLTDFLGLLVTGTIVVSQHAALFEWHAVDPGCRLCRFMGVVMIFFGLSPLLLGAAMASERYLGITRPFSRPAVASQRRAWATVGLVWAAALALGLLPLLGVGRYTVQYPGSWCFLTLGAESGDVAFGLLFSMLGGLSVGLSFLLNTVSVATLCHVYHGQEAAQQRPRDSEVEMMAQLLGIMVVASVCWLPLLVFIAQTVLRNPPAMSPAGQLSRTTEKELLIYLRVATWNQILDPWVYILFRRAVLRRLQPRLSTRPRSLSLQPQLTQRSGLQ
Description: Inhibition constant against thromboxane A2 receptor to prostaglandin H2 receptor

Histamine H1 receptor = Histamine H1 receptor (Homo sapiens, UniProt P35367)
Chain of Histamine H1 receptor (P35367 whole entry): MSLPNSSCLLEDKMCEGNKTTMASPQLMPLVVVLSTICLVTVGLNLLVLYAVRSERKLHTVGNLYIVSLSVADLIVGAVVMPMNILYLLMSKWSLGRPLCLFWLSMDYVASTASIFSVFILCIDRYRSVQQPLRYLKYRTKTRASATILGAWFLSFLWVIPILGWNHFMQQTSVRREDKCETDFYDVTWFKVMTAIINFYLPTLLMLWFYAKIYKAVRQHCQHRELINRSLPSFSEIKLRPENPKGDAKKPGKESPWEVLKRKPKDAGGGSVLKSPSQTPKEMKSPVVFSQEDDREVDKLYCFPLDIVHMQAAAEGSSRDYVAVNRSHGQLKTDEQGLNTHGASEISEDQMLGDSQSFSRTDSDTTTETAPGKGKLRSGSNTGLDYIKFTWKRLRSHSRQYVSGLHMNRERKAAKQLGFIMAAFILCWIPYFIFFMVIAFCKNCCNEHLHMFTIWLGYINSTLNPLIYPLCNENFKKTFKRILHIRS
Description: Inhibition constant against histamine H1 receptor

Endothelin-1 receptor = molecular target: T7, Endothelin-1 receptor (Homo sapiens, UniProt P25101)
T7 sequence (P25101 whole entry): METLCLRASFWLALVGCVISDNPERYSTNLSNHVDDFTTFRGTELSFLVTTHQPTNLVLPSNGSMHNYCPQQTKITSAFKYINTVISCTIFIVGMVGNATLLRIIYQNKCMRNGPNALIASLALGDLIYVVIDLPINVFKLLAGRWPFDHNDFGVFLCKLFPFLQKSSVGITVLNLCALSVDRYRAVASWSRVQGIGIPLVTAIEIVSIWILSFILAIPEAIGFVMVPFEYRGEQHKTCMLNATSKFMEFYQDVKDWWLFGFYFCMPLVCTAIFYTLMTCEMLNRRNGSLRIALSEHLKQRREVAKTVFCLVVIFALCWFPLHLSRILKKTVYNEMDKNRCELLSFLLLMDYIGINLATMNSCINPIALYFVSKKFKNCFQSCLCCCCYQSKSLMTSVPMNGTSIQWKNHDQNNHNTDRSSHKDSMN
Description: Inhibitory concentration against endothelin receptor type A

[7] = molecular target: T2, Type-1 angiotensin II receptor; remark: listed apart in the source
Description: as §1

Substance-P receptor = Substance-P receptor (Homo sapiens, UniProt P25103); assay: Inhibitory concentration against tachykinin receptor 1
Chain of Substance-P receptor (P25103 whole entry): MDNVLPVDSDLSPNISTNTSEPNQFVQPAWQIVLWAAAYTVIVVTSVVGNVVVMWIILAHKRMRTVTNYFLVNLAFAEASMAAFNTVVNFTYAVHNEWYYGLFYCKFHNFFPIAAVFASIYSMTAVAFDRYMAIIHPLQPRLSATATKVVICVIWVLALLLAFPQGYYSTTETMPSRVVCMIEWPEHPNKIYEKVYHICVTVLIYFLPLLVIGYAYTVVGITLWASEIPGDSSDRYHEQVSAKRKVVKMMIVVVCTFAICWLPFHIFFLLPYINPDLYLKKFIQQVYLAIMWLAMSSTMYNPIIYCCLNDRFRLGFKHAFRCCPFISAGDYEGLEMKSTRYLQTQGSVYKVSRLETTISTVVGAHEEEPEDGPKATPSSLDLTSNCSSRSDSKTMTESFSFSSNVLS

Substance-K receptor = molecular target: T8, Substance-K receptor (Homo sapiens, UniProt P21452)
T8 sequence (P21452 whole entry): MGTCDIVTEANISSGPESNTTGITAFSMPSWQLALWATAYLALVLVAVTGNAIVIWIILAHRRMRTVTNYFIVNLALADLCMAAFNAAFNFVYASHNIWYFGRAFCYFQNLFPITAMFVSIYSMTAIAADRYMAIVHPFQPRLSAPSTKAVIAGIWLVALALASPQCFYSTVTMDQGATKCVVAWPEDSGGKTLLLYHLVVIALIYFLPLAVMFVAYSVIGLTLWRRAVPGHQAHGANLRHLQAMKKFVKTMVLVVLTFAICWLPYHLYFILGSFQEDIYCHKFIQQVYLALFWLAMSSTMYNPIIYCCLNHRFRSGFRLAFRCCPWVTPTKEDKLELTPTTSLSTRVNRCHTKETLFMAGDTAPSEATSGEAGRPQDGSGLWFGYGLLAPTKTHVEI
Description: Inhibitory concentration against tachykinin receptor 2

CC1(C)Cc2c(-c3ccccc3)c(-c3ccc(Cl)cc3)c(CC(=O)O)n2C1 [LICOFELONE]
IC50 [1]: 210 nM
IC50 [2]: 160 nM

Cc1c(Cc2ccncc2)n(CCNS(=O)(=O)c2ccc(F)cc2)c2ccc(CCC(=O)O)cc12
IC50 (Thromboxane-A synthase): 78 nM

CCCCc1nc2ccc(NC(=O)N(C)C(C)C)cc2c(=O)n1Cc1ccc(-c2ccccc2-c2nnn[nH]2)cc1
IC50 [3]: 0.1 nM
IC50 [4]: 4500 nM

CC(Cc1ccccc1)(Oc1ccc(Cl)cc1)C(=O)O (configuration not stated)
IC50 [5]: 3.9 µM
IC50 [6]: 4.4 µM

Cc1oc(-c2ccccc2)nc1CCOc1ccc(OC(C)(C)C(=O)O)cc1
IC50 [5]: 2.57 µM
IC50 [6]: 1.74 µM

CN(C)C/C=C1\c2ccccc2COc2ccc(CC(=O)O)cc21
Ki (Thromboxane A2 receptor): > 1000 nM
Ki (Histamine H1 receptor): 11 nM

COC1(c2cc(F)cc(OCc3cc(-c4ccccc4)n(-c4ccc(S(C)(=O)=O)cc4)n3)c2)CCOCC1
IC50 [2]: > 10 nM

CCCCC1=NC2(CCCC2)C(=O)N1Cc1ccc(-c2ccccc2S(=O)(=O)Nc2noc(C)c2C)c(COCC)c1
Ki (Endothelin-1 receptor): 9.3 nM
Ki [7]: 0.8 nM

CCCCCN(C(=O)c1ccccc1)c1ccc2nc(CCC)n(Cc3ccc(-c4ccccc4-c4nn[nH]n4)cc3)c(=O)c2c1
IC50 [3]: 1.7 nM
IC50 [4]: 0.7 nM

Cc1onc(NS(=O)(=O)c2ccccc2-c2ccc(-c3ncco3)cc2CN(C)C(=O)CC(C)(C)C)c1C [EDONENTAN]
Ki (Endothelin-1 receptor): 10 nM
Ki [7]: > 10 nM

CNc1nc2c(Cc3cccnc3)c(C)c(O)c(C)c2s1
IC50 (Thromboxane-A synthase): 90 nM
IC50 [1]: 100 nM

COc1cc(C(=O)N2CC[C@@](CCN3CCC(C(N)=O)(c4ccccc4)CC3)(c3ccc(Cl)c(Cl)c3)C2)cc(OC)c1OC
IC50 (Substance-P receptor): 3.1 nM
IC50 (Substance-K receptor): 8.4 nM

O=C(O)Cc1ccc2c(c1)C(=CCN1CCC(Cc3ccccc3)CC1)c1ccccc1CO2
Ki (Thromboxane A2 receptor): 740 nM
Ki (Histamine H1 receptor): 20 nM

O=C(O)c1ccc2c(c1)/C(=C/Cn1cnc3ccccc31)c1ccccc1CO2
Ki (Thromboxane A2 receptor): 15 nM

NC(=O)C1(c2ccccc2)CCN(CC[C@@]2(c3ccc(Cl)c(Cl)c3)CCN(C(=O)c3ccccc3)C2)CC1
IC50 (Substance-P receptor): 161 nM
IC50 (Substance-K receptor): 2.25 nM
